Where “and” joins values, the source holds several entries; their conditions need not be identical. Equal values may be shown once. Read-outs that look alike come from different tables or passages of the source.
Experiments:
T116 cells = experiment: cells; format: cell-based, Chinese hamster
F179 cells [1] = experiment: cells; details: Cricetulus griseus, read-out: IC50 F179
E. coli nitroreductase [2] = target: T1, E. coli nitroreductase (Escherichia coli, UniProt P38489); experiment: in vitro; details: pH 7
hDT7 cells = experiment: cells; format: cell-based, Chinese hamster; details: read-out: IC50 hDT7
[3] = tested on: SKOV3 human ovarian carcinoma cells not infected (NR−); experiment: cells; format: cell-based
[4] = tested on: SKOV3 human ovarian carcinoma cells infected with adenovirus expressing E. coli nitroreductase (NR+); experiment: Cytotoxicity in SKOV3 cells infected with adenovirus expressing E. coli nitroreductase (NR+), MTT; format: cell-based; details: for IC50: adenovirus NR, 100 pfu/cell; for Ratio of IC50 values (NR−/NR+): SKOV3, 18 hour drug exposure
E. coli nitroreductase [5] = target: T1, E. coli nitroreductase; format: biochemical
E. coli nitroreductase [6] = target: T1, E. coli nitroreductase; details: pH 7
F179 cells [7] = details: read-out: IC50 F179
[8] = Cricetulus griseus, V79, 72 h, read-out: IC50 T116
[9] = Cricetulus griseus, V79, 1 h, read-out: IC50 T116
[10] = Homo sapiens, SK-OV-3, 18 h, read-out: IC50 in SKOV3 NR−
[11] = Homo sapiens, SK-OV-3, 18 h, read-out: IC50 in SKOV3 NR+, 18 hour drug exposure
[12] = 200 μM compound, 1 mM NADH, 1.8 μg E. coli nitroreductase, 10 mM phosphate buffer pH 7.0, 37° C., 250 μL, UV 340 nm
[13] = 72 hours drug exposure, E. coli nitroreductase-expressing cells, read-out: IC50 T116
[14] = 72 hours drug exposure, human NQO1-expressing cells
[15] = 72 hours drug exposure, vector-only control cells
[16] = read-out: IC50 in SKOV3 NR+, 18 hour drug exposure
[17] = 18 hour drug exposure; uninfected cells; read-out: IC50 in SKOV3 NR−
[18] = 18 hour drug exposure, read-out: IC50 in SKOV3 NR+

T1 sequence (P38489 whole entry): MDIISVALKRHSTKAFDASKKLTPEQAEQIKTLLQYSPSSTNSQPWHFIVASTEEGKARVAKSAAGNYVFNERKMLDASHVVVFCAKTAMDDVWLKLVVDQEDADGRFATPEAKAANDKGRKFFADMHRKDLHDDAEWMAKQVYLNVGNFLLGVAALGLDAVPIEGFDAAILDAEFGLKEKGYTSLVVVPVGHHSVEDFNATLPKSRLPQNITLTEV

| Structure (SMILES) | Ratio of IC50 values (F179/T116) (T116 cells) | IC50 [3, 10] [µM] | IC50 [4, 11] [µM] | Ratio of IC50 values (NR−/NR+) [4] | NR Assay vi (initial velocity) (E. coli nitroreductase [5]; [12]) [nmol/min] | NR assay t1/2 (half-life of reduction by E. coli nitroreductase) (E. coli nitroreductase [6]) [min] | IC50 [4, 18] [µM] | also measured |
| --- | --- | --- | --- | --- | --- | --- | --- | --- |
| O=[N+]([O-])c1ccc2c(c1)NP(=O)(N(CCCl)CCCl)NC2 (stereo not shown) [Compound 9d, 7-Nitro-2-[bis(2-chloroethyl)amino]-1,3,2-benzodiazaphosphorinane-2-oxide] | ˜1 |  |  |  |  |  |  | IC50 (T116 cells; [8]): > 100 µM; IC50 (F179 cells [1]; 72 h): > 100 µM; half-life (E. coli nitroreductase [2]): 7.8 min; IC50 (hDT7 cells; Cricetulus griseus, V79, 72 h): > 100 µM |
| NP(=O)(OCc1ccc([N+](=O)[O-])cc1)N(CCCl)CCCl (stereo not shown) [Compound 15c, 4-nitrobenzyl N,N-bis(2-chloroethyl)phosphordiamidate] | 20,833 and >10,000 | > 1000 | 1.1 | >909 | 2.31 |  |  | IC50 (T116 cells; [9]): 0.01 µM; IC50 (T116 cells; Cricetulus griseus, V79, 1 h, read-out: IC50 in E. coli nitroreductase-expressing T116 cells): 0.01 µM; IC50 (T116 cells; [8]): 0.003 µM; IC50 (T116 cells; Cricetulus griseus, V79, 72 h, read-out: IC50 in E. coli nitroreductase-expressing T116 cells): 0.003 µM; IC50 (F179 cells [1]; 1 h): > 100 µM; IC50 (F179 cells [1]; 72 h): 62.5 µM; IC50 (hDT7 cells; Cricetulus griseus, V79, 72 h): 27 µM |
| COc1cc(COP(N)(=O)N(CCCl)CCCl)ccc1[N+](=O)[O-] (stereo not shown) [Compound 15h, 3-methoxy-4-nitrobenzyl N,N-bis(2-chloroethyl)phosphordiamidate] |  | 910 | 3.1 | 294 | 4.40 |  |  |  |
| O=[N+]([O-])c1ccc([C@H]2CCN[P@@](=O)(N(CCCl)CCCl)N2)cc1 [trans-13d, 2-[Bis(2-chloroethyl)amino]-4-(p-nitrophenyl)-2H-1,3,2-diazaphosphorinane 2-oxide] | >2.1 |  |  |  |  | 4.2 |  | IC50 (T116 cells; [13]): 48.3 µM; IC50 (hDT7 cells; [14]): > 100 µM; IC50 (F179 cells [7]; [15]): > 100 µM |
| CC(OP(N)(=O)N(CCCl)CCCl)c1ccc([N+](=O)[O-])cc1 (single isomer, unassigned) [Compound 15d-A, 1-(4-nitrophenyl)ethyl N,N-bis(2-chloroethyl)phosphordiamidate] |  | > 1000 |  | >556 | 2.53 |  |  | IC50 [4, 16]: 1.8 µM |
| O=[N+]([O-])c1ccc([C@H]2CCO[P@@](=O)(N(CCCl)CCCl)N2)cc1 [cis-13b, 2-[Bis(2-chloroethyl)amino]-4-(p-nitrophenyl)-2H-1,3,2-oxazaphosphorinane 2-oxide] | >2.2 |  |  | >2 |  | 11.9 | 510 | IC50 (T116 cells; read-out: IC50 T116): 45.3 µM; IC50 [3, 17]: > 1000 µM; IC50 (hDT7 cells): > 100 µM; IC50 (F179 cells [7]): > 100 µM |
| CC(OP(N)(=O)N(CCCl)CCCl)c1ccc([N+](=O)[O-])cc1 (single isomer, unassigned) [Compound 15d-B, 1-(4-nitrophenyl)ethyl N,N-bis(2-chloroethyl)phosphordiamidate] |  |  |  | >250 | 1.65 |  |  | IC50 ([3]; read-out: IC50 in SKOV3 NR−; 18 hour drug exposure; uninfected cells): > 1000 µM; IC50 [4, 16]: 4 µM |
| COC(=O)c1cc(COP(N)(=O)N(CCCl)CCCl)ccc1[N+](=O)[O-] (stereo not shown) [Compound 15f, 3-methoxycarbonyl-4-nitrobenzyl N,N-bis(2-chloroethyl) phosphordiamidate] |  |  |  | 190 | 0.30 |  | 2.1 | IC50 [3, 17]: 400 µM |
| O=[N+]([O-])c1ccc2c(c1)OP(=O)(N(CCCl)CCCl)NC2 (stereo not shown) [Compound 9b, 7-Nitro-2-[bis(2-chloroethyl)amino]-1,3,2-benzoxazaphosphorinane-2-oxide] | 1.3 | 510 | 410 | 1.2 |  |  |  | IC50 (T116 cells; [8]): 48 µM; IC50 (F179 cells [1]; 72 h): 61 µM; half-life (E. coli nitroreductase [2]): 11 min; IC50 (hDT7 cells; Cricetulus griseus, V79, 72 h): 48 µM |
| NC(=O)c1cc(N2CC2)c([N+](=O)[O-])cc1[N+](=O)[O-] [CB1954, 5-(aziridin-1-yl)-2,4-dinitrobenzamide, reference compound] |  |  | 4 |  |  |  |  | IC50 (T116 cells; [9]): 0.306 µM; IC50 (T116 cells; [8]): 0.036 µM; IC50 ([3]; Homo sapiens, SK-OV-3; 18 hour drug exposure; uninfected cells; read-out: IC50 in SKOV3 NR−): 600 µM; IC50 (F179 cells [1]; 1 h): > 100 µM; IC50 (F179 cells [1]; 72 h): 254 µM; half-life (E. coli nitroreductase [2]; E. coli): 5 min; IC50 (hDT7 cells; Cricetulus griseus, V79, 72 h): 1.7 µM |
| O=[N+]([O-])c1ccc([C@H]2CCO[P@@](=O)(N(CCCl)CCCl)N2)cc1 [trans-13b, 2-[Bis(2-chloroethyl)amino]-4-(p-nitrophenyl)-2H-1,3,2-oxazaphosphorinane 2-oxide] | >1.9 |  |  | 3.3 |  | 2.9 | 250 | IC50 (T116 cells; [13]): 51.5 µM; IC50 ([3]; read-out: IC50 in SKOV3 NR−): 820 µM; IC50 (hDT7 cells; [14]): > 100 µM; IC50 (F179 cells [7]; [15]): > 100 µM |
| NC(=O)c1cc(COP(N)(=O)N(CCCl)CCCl)ccc1[N+](=O)[O-] (stereo not shown) [Compound 15e, 3-carboxamide-4-nitrobenzyl N,N-bis(2-chloroethyl)phosphordiamidate] |  |  |  | >24 | 0.38 |  | 41 | IC50 [3, 17]: > 1000 µM |
| NP(=O)(OCc1ccccc1[N+](=O)[O-])N(CCCl)CCCl (stereo not shown) [Compound 15a, 2-nitrobenzyl N,N-bis(2-chloroethyl)phosphordiamidate] |  | 950 | 90 | 11 | 0.46 |  |  |  |
| O=[N+]([O-])c1ccc2c(c1)NP(=O)(N(CCCl)CCCl)OC2 (stereo not shown) [Compound 9c, 7-Nitro-2-[bis(2-chloroethyl)amino]-3,1,2-benzoxazaphosphorinane-2-oxide] | >33 | 540 | 55 | 9.8 | 1.63 |  |  | IC50 (T116 cells; [8]): 3 µM; IC50 (F179 cells [1]; 72 h): > 100 µM; half-life (E. coli nitroreductase [2]): 13 min; IC50 (hDT7 cells; Cricetulus griseus, V79, 72 h): > 100 µM |
| O=[N+]([O-])c1ccc([C@@H]2CCN[P@](=O)(N(CCCl)CCCl)O2)cc1 [cis-13c, 2-[Bis(2-chloroethyl)amino]-6-(p-nitrophenyl)-2H-1,3,2-oxazaphosphorinane 2-oxide] |  |  |  | 151 | 2.33 | 5.2 | 4.5 | IC50 [3, 17]: 680 µM; IC50 (hDT7 cells): > 100 µM |
| COc1cc([N+](=O)[O-])ccc1COP(N)(=O)N(CCCl)CCCl (stereo not shown) [Compound 15i, 2-methoxy-4-nitrobenzyl N,N-bis(2-chloroethyl)phosphordiamidate] |  | > 1000 | 1.8 | >556 | 12.56 |  |  |  |
| NP(=O)(OCc1cccc([N+](=O)[O-])c1)N(CCCl)CCCl (stereo not shown) [Compound 15b, 3-nitrobenzyl N,N-bis(2-chloroethyl)phosphordiamidate] |  | 820 | 240 | 3.4 | 1.23 |  |  |  |
| O=[N+]([O-])c1ccc([C@@H]2CCN[P@](=O)(N(CCCl)CCCl)O2)cc1 [trans-13c, 2-[Bis(2-chloroethyl)amino]-6-(p-nitrophenyl)-2H-1,3,2-oxazaphosphorinane 2-oxide] | 22,519 |  |  | >200 |  | 3.9 | 5 | Ratio of IC50 values (F179/T116) (T116 cells; 1 hour drug exposure): >602; IC50 (T116 cells; 1 hour drug exposure, read-out: IC50 T116): 0.166 µM; IC50 (T116 cells; [13]): 0.027 µM; IC50 ([3]; read-out: IC50 in SKOV3 NR−): > 1000 µM; IC50 (hDT7 cells; [14]): > 100 µM; NR Assay vi (initial velocity) (E. coli nitroreductase [5]; pH 7): 3.54 nmol/min; IC50 (F179 cells [7]; 1 hour drug exposure): > 100 µM |
| Cc1cc(COP(N)(=O)N(CCCl)CCCl)ccc1[N+](=O)[O-] (stereo not shown) [Compound 15g, 3-methyl-4-nitrobenzyl N,N-bis(2-chloroethyl)phosphordiamidate] |  | 510 | 3.3 | 155 | 1.61 |  |  |  |
| O=[N+]([O-])c1ccc([C@H]2CCN[P@@](=O)(N(CCCl)CCCl)N2)cc1 [cis-13d, 2-[Bis(2-chloroethyl)amino]-4-(p-nitrophenyl)-2H-1,3,2-diazaphosphorinane 2-oxide] | 12.3 |  |  |  |  | 6.4 |  | IC50 (T116 cells; read-out: IC50 T116): 4.6 µM; IC50 (hDT7 cells): 46.8 µM; IC50 (F179 cells [7]): 56.8 µM |

Reference: patent US20040214798A1 (priority 2003, published 2004)
